{"source": "patent US12503448B2", "about": "“Antibacterial and antiparasitic quinoxaline-2,3-diamine derivatives” (University College Cardiff Consultants Limited, priority 2019, dated 2025)", "assay": "MTT assay on HepG2 cells", "type": "cell-based", "settings": "human", "experimental": "MTT Assay on HepG2 Cells Human Hepatocyte Carcinoma (HepG2) cells (85011430, Sigma Aldrich) were used to assess the overt toxicity of these anti-infective compounds. […] A negative control (1% v/v Triton X-100; X100, Sigma-Aldrich) was also included in each screen. After addition of compounds, each plate was then incubated for a further 20 hrs before application of MTT reagent (prepared as described in Nur-[…], Bari A, Ghabbour […], Hoffmann […] Nat Prod. 2017 Jun. 23; 80(6):1900-1908 for the assessment of compound cytotoxicity using the MTT assay. […] The plate was then further incubated for 4 hrs. After incubation, each plate was blotted dry under the laminar flow to remove the MTT treated culture media. A 100 μl DMSO: isopropanol (1:1) solution was then added to each well and the plate was then subsequently incubated for 10 minutes at 37° C. Following incubation, each plate was shaken again and then absorbance measured at 570 nm. The absorbance reading was corrected based on the average value of the wells used as blank (no cells). […] The data obtained in this manner is shown in Table 1 in the columns labelled “HepG2”. […] The selectivity indexes for schistosomula and adult worms are shown in the final two columns in Table 1."}
{"smiles": "O=[N+]([O-])c1ccc2nc(Nc3ccc(C(F)(F)F)cc3)c(Nc3ccc(C(F)(F)F)cc3)nc2c1", "note": "[Compound 11, 6-nitro-N^2, N^3-bis(4-(trifluoromethyl)phenyl)quinoxaline-2,3-diamine]", "values": [{"measurement": "CC50 at 24 h", "result": 15.6, "unit": "µM"}]}
